In general, IC50 refers to the concentration that gives 50% inhibition. The low end stands for higher potency, the high end for lower potency.

Our source for the IC50 values is BindingDB's records for patent US20240270732 (Chengdu Biobel Biotechnology Co., 2024).

The assay concerns the target T1, Receptor-interacting serine/threonine-protein kinase 1 (Homo sapiens, UniProt Q13546).
T1 sequence (Q13546 whole entry): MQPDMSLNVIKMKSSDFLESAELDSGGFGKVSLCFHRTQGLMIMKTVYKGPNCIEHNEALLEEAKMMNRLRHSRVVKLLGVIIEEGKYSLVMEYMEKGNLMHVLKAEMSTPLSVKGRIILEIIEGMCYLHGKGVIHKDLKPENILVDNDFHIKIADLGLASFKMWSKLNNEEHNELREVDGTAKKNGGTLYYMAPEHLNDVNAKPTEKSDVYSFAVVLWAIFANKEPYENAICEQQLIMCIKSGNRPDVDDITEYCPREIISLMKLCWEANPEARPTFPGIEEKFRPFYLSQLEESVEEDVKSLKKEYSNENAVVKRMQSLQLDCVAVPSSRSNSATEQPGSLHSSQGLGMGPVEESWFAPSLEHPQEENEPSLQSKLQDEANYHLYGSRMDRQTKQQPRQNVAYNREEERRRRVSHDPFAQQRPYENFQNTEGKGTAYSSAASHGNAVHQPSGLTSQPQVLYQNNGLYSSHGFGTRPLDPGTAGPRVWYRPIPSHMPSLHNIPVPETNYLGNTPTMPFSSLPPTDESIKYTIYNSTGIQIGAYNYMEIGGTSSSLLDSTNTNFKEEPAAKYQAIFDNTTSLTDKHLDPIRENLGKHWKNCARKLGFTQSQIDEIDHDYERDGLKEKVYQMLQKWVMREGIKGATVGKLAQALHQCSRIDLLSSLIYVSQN
The assay is described as follows: Inhibitory Activity Assay. In a few lines:
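Compounds were titrated 22-point, 1:1.5 from 2 μM top concentration, in 50 mM Hepes pH 7.5, 50 mM NaCl, 30 mM MgCl2, 1 mM DTT, 0.02% CHAPS, 0.5 mg/mL BSA. After the kinase reaction, ADP-Glo reagent was added for 1 h at room temperature, then detection solution for 30 min, and luminescence was read.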
`C[C@H]1Oc2ccc(C#CCN3CCN(CC#Cc4ccc5c(c4)N(C)C(=O)[C@@H](NC(=O)c4ncn(Cc6ccccc6)n4)[C@@H](C)O5)CC3)cc2N(C)C(=O)[C@H]1NC(=O)c1n[nH]c(Cc2ccccc2)n1` [US20240270732, Compound I-4] displayed an IC50 of 6.68 nM.
`CN1C(=O)[C@@H](NC(=O)c2nnn(Cc3ccccc3)n2)COc2ccc(C#CCN3CCN(CC#Cc4ccc5c(c4)N(C)C(=O)[C@@H](NC(=O)c4nnn(Cc6ccccc6)n4)CO5)CC3)cc21` [US20240270732, Compound I-58] gave an IC50 of 6.16 nM.
In the case of `C[C@H]1Oc2ccc(C#CCCCCC(=O)O)cc2N(C)C(=O)[C@H]1NC(=O)c1ncn(Cc2ccccc2)n1` [US20240270732, Compound I-108] it was 20.5 nM; in that of `C[C@H]1Oc2ccc(C#CCN3CCN(CC#Cc4ccc5c(c4)N(C)C(=O)[C@@H](NC(=O)c4n[nH]c(Cc6ccncc6)n4)[C@@H](C)O5)CC3)cc2N(C)C(=O)[C@H]1NC(=O)c1n[nH]c(Cc2ccncc2)n1` [US20240270732, Compound I-66], 18.8 nM; in that of `C[C@H]1Oc2ccc(C#CCN3CCN(CC#Cc4ccc5c(c4)N(C)C(=O)[C@@H](NC(=O)c4ncn(Cc6cccnc6)n4)[C@@H](C)O5)CC3)cc2N(C)C(=O)[C@H]1NC(=O)c1ncn(Cc2cccnc2)n1` [US20240270732, Compound I-74], 17.5 nM.
